Reference: patent publication US11071730B2, “Substituted 6-azabenzimidazole compounds” (Gilead Sciences, Inc., priority 2018, dated 2021)

molecular target: human HPK1 (MAP4K1) (Homo sapiens (Human), UniProt Q92918); assay: HPK1 IC50 Assay (TR-FRET biochemical kinase assay, STK S1 peptide substrate); details: recombinant human HPK1 kinase domain 0.15 nM, 10 μM ATP, 1 μM STK S1 peptide; geometric mean
Procedure, shortened: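 Pre-activated recombinant kinase domain (insect cells; 0.15 nM) pre-incubated with compounds for 15 min, then 10 μM ATP and 1 μM STK S1 peptide added for 3 h at 25 °C in BES pH 7.0. Phosphorylation read by HTRF (665/620 nm). IC50 from four-parameter fits normalized to staurosporine/DMSO controls, geometric mean of repeats.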

human HPK1 (MAP4K1), sequence (Q92918 17-274): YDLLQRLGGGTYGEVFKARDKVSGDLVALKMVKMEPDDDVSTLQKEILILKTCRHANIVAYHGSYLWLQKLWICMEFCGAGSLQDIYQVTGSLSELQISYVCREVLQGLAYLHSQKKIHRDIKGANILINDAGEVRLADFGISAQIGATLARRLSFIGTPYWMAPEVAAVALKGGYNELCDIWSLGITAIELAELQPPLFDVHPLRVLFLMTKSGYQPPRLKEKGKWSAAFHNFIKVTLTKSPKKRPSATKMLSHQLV

| IC50 [nM] | Structure (SMILES) |
| --- | --- |
| 0.3 | CC(C)n1cnc2cc(-c3ccc4c(c3)N([C@H]3C[C@@H](N5CCC(C)(C)C5)C3)C(=O)C43CCN(C(=O)c4ccon4)CC3)nc(Nc3ccncc3F)c21 [Example 155] |
| 0.7 | CC(=O)N1CCC2(CC1)C(=O)N([C@H]1C[C@@H](N3CCCC[C@@H]3C)C1)c1cc(-c3cc4ncn(C(C)C)c4c(Nc4ccncc4F)n3)ccc12 [Example 184] |
| 0.1 | CC(C)n1cnc2cc(-c3ccc4c(c3)N([C@H]3C[C@@H](N5CCCCC5)C3)C(=O)C43CCN(C(=O)[C@@H](C)O)CC3)nc(Nc3ccnc(F)c3F)c21 [Example 102] |
| 0.4 | CC(=O)N1CCC2(CC1)C(=O)N([C@H]1C[C@@H](N3CCCCC3)C1)c1cc(-c3cc4ncn(C(C)C)c4c(Nc4cc5ccncc5cc4F)n3)ccc12 [Example 105, 1′-acetyl-6-(4-((7-fluoroisoquinolin-6-yl)amino)-3-isopropyl-3H-imidazo[4,5-c]pyridin-6-yl)-1-((1s,3s)-3-(piperidin-1-yl)cyclobutyl)spiro[indoline-3,4′-piperidin]-2-one] |
| 0.2 | CC(C)[C@@H](O)C(=O)N1CCC2(CC1)C(=O)N([C@H]1C[C@@H](N3CCC(C)(C)C3)C1)c1cc(-c3cc4ncn(C(C)C)c4c(Nc4ccncc4F)n3)ccc12 [Example 118] |
| 0.3 | CC(=O)N1CCC2(CC1)C(=O)N(C1CC(N3CCCC4(CC4)C3)C1)c1cc(-c3cc4ncn(C(C)C)c4c(Nc4ccncc4F)n3)ccc12 (centres unmarked) [Example 177, 1-((1s,3s)-3-(5-azaspiro[2.5]octan-5-yl)cyclobutyl)-1′-acetyl-6-(4-((3-fluoropyridin-4-yl)amino)-3-isopropyl-3H-imidazo[4,5-c]pyridin-6-yl)spiro[indoline-3,4′-piperidin]-2-one] |
| 0.1 | CC(=O)N1CCC2(CC1)C(=O)N([C@H]1C[C@@H](N3C[C@H]4CC[C@H]4C3)C1)c1cc(-c3cc4ncn(C(C)C)c4c(Nc4ccncc4F)n3)ccc12 [Example 172] |
| 0.4 | CC[C@@H](O)C(=O)N1CCC2(CC1)C(=O)N([C@H]1C[C@@H](N3CCCCC3)C1)c1cc(-c3cc4ncn(C(C)C)c4c(Nc4ccncc4F)n3)ccc12 [Example 114] |
| 0.08 | CC(C)n1cnc2cc(-c3ccc4c(c3)N([C@H]3C[C@@H](N5CCC(C)(C)C5)C3)C(=O)C43CCN(C(=O)C(C)(C)CO)CC3)nc(Nc3ccc(F)nc3F)c21 [Example 164] |
| 0.4 | CC(C)n1cnc2cc(-c3ccc4c(c3)N([C@H]3C[C@@H](N5CCC(C)(C)C5)C3)C(=O)C43CCN(C(=O)c4ncon4)CC3)nc(Nc3ccncc3F)c21 [Example 160] |
| 0.07 | CC(C)n1cnc2cc(-c3ccc4c(c3)N([C@H]3C[C@@H](N5CC6CCC(C6)C5)C3)C(=O)C43CCN(C(=O)CO)CC3)nc(Nc3ccncc3F)c21 [Example 128] |

Second part, the compound before the results:

| Structure (SMILES) | IC50 [nM] |
| --- | --- |
| Cc1cnc(Nc2nc(-c3ccc4c(c3)N([C@H]3C[C@@H](N5CCCCC5)C3)C(=O)C4(C)C)cc3ncn(C(C)C)c23)cc1C(=O)NC1(CF)CC1 [Example 195] | 6 |
| Cc1cc(Nc2nc(-c3ccc4c(c3)N([C@H]3C[C@@H](N5CCCCC5)C3)C(=O)C43CCN(C(=O)C(C)(C)CO)CC3)cc3ncn(C(C)C)c23)c(F)cn1 [Example 132] | 0.8 |
| CC(C)n1cnc2cc(-c3ccc4c(c3)N([C@H]3C[C@@H](N5C6COCC5C6)C3)C(=O)C4(C)C)nc(Nc3ccncc3F)c21 [Example 190] | 2.1 |
| CCC(=O)N1CCC2(CC1)C(=O)N([C@H]1C[C@@H](N3CCCCC3)C1)c1cc(-c3cc4ncn(C(C)C)c4c(Nc4ccncc4F)n3)ccc12 [Example 167, 6-(4-((3-fluoropyridin-4-yl)amino)-3-isopropyl-3H-imidazo[4,5-c]pyridin-6-yl)-1-((1s,3s)-3-(piperidin-1-yl)cyclobutyl)-1′-propionylspiro[indoline-3,4′-piperidin]-2-one] | 0.4 |
| Cc1cc(Nc2nc(-c3ccc4c(c3)N([C@H]3C[C@@H](N5CCC(C)(C)C5)C3)C(=O)C43CCN(C(=O)C4CCO4)CC3)cc3ncn(C(C)C)c23)c(F)cn1 (some centres unmarked) [Example 133] | 0.2 |
| CC(C)n1cnc2cc(-c3ccc4c(c3)N([C@H]3C[C@@H](N5CCCCC5)C3)C(=O)C4(C)O)nc(Nc3ccnc(F)c3F)c21 (some centres unmarked) [Example 101] | 0.3 |

same assay, conditions: recombinant human HPK1 kinase domain 0.15 nM, 10 μM ATP, 1 μM STK S1 peptide; geometric mean of multiple experiments

| IC50 [nM] | Structure (SMILES) |
| --- | --- |
| 0.2 | CC(C)n1cnc2cc(-c3ccc4c(c3)N([C@H]3C[C@@H](N5CCC(C)(C)C5)C3)C(=O)C43CCN(C(=O)[C@H]4CCCO4)CC3)nc(Nc3ccncc3F)c21 [Example 14] |
| 1.2 | CC(C)n1cnc2cc(-c3ccc4c(c3)N([C@H]3C[C@@H](N5CCCCC5)C3)C(=O)[C@@]4(C)O)nc(Nc3ccncc3F)c21 [Example 55A, 6-(4-((3-fluoropyridin-4-yl)amino)-3-isopropyl-3H-imidazo[4,5-c]pyridin-6-yl)-3-hydroxy-3-methyl-1-((1s,3s)-3-(piperidin-1-yl)cyclobutyl)indolin-2-one] |
| 0.3 | CC(C)n1cnc2cc(-c3ccc4c(c3)N([C@H]3C[C@@H](N5CCC(C)(C)C5)C3)C(=O)C43CCN(C(=O)[C@@H]4CCOC4)CC3)nc(Nc3ccncc3F)c21 [Example 17] |
| 5.6 | CC(=O)N1CCC2(CC1)C(=O)N([C@H]1C[C@@H](N3CCCCC3)C1)c1cc(-c3cc4ncn(C(C)C)c4c(Nc4ncc(F)cc4F)n3)ccc12 [Example 69] |
| 13.2 | CC(C)n1cnc2cc(-c3cnc4c(c3)N([C@H]3C[C@@H](N5CCCCC5)C3)C(=O)C4(C)C)nc(Nc3ccncc3F)c21 [Example 51] |
| 1.5 | Cc1cc(Nc2nc(-c3ccc4c(c3)N([C@H]3C[C@@H](N5CCCCC5)C3)C(=O)C4(C)C)cc3ncn(C(C)C)c23)c(F)cn1 [Example 54] |
| 0.2 | CC(C)n1cnc2cc(-c3ccc4c(c3)N([C@H]3C[C@@H](N5CCC(C)(C)C5)C3)C(=O)C43CCN(C(=O)[C@@H]4OCC[C@@H]4C)CC3)nc(Nc3ccncc3F)c21 [Example 19A, 1-((1s,3S)-3-(3,3-dimethylpyrrolidin-1-yl)cyclobutyl)-6-(4-((3-fluoropyridin-4-yl)amino)-3-isopropyl-3H-imidazo[4,5-c]pyridin-6-yl)-1′-((2R,3S)-3-methyltetrahydrofuran-2-carbonyl)spiro[indoline-3,4′-piperidin]-2-one] |
| 0.2 | CC(C)n1cnc2cc(-c3ccc4c(c3)N([C@H]3C[C@@H](N5C[C@@H](C)[C@@H](C)C5)C3)C(=O)C43CCN(C(=O)C4(C)COC4)CC3)nc(Nc3ccncc3F)c21 [Example 8] |
| 0.1 | CC(=O)N1CCC2(CC1)C(=O)N([C@H]1C[C@@H](N3CCCCC3)C1)c1cc(-c3cc4ncn(C(C)C)c4c(Nc4ccc(F)nc4F)n3)ccc12 [Example 70] |

The next lines start with the compound.

| Structure (SMILES) | IC50 [nM] |
| --- | --- |
| CC(C)n1cnc2cc(-c3ccc4c(c3)N([C@H]3C[C@@H](N5CCCCC5)C3)C(=O)C43CCN(C(=O)C45CC(F)(C4)C5)CC3)nc(Nc3ccncc3F)c21 [Example 28] | 0.1 |
| CC(C)n1cnc2cc(-c3ccc4c(c3)N([C@H]3C[C@@H](N5CCC(C)(C)C5)C3)C(=O)C43CCN(C(=O)[C@H]4CC[C@@H](C)O4)CC3)nc(Nc3ccncc3F)c21 [Example 20A, 1-((1s,3S)-3-(3,3-dimethylpyrrolidin-1-yl)cyclobutyl)-6-(4-((3-fluoropyridin-4-yl)amino)-3-isopropyl-3H-imidazo[4,5-c]pyridin-6-yl)-1′-((2R,5R)-5-methyltetrahydrofuran-2-carbonyl)spiro[indoline-3,4′-piperidin]-2-one] | 0.1 |
| CC(C)n1cnc2cc(-c3ccc4c(c3)N([C@H]3C[C@@H](N5CCC(C(F)F)C5)C3)C(=O)C43CCN(C4COC4)CC3)nc(Nc3ccncc3F)c21 (some centres unmarked) [Example 48] | 1.5 |
| CC(C)n1cnc2cc(-c3ccc4c(c3)N([C@H]3C[C@@H](N5CCCCC5)C3)C(=O)C43CCN(C(=O)C4(C)CCOCC4)CC3)nc(Nc3ccncc3F)c21 [Example 1, 6-(4-((3-fluoropyridin-4-yl)amino)-3-isopropyl-3H-imidazo[4,5-c]pyridin-6-yl)-1′-(4-methyltetrahydro-2H-pyran-4-carbonyl)-1-((1s,3s)-3-(piperidin-1-yl)cyclobutyl)spiro[indoline-3,4′-piperidin]-2-one] | 0.6 |
| CCn1cnc2cc(-c3ccc4c(c3)N([C@H]3C[C@@H](N5CCC(C)(C)C5)C3)C(=O)C43CCN(C4COC4)CC3)nc(Nc3ccncc3F)c21 [Example 87] | 0.7 |
| COc1cc(F)c(Nc2nc(-c3ccc4c(c3)N([C@H]3C[C@@H](N5CCCCC5)C3)C(=O)C43CCN(C(C)=O)CC3)cc3ncn(C(C)C)c23)cn1 [Example 97] | 0.2 |
| CC(C)n1cnc2cc(-c3ccc4c(c3)N([C@H]3C[C@@H](N5CC6CC6C5)C3)C(=O)C4(C)C)nc(Nc3ccncc3F)c21 (some centres unmarked) [Example 61] | 0.8 |
| CC(C)n1cnc2cc(-c3ccc4c(c3)N([C@H]3C[C@@H](N5CCCCC5)C3)C(=O)C4(C)C)nc(Nc3ccncc3F)c21 [Example 83] | 0.8 |
| CC(C)n1cnc2cc(-c3ccc4c(c3)N([C@H]3C[C@@H](N5CC[C@H](C)C5)C3)C(=O)C43CCN(C4COC4)CC3)nc(Nc3ccncc3F)c21 [Example 47] | 1.6 |
| CC(C)n1cnc2cc(-c3ccc4c(c3)N([C@H]3C[C@@H](N5CCC[C@@H](C)C5)C3)C(=O)C43CCN(C4COC4)CC3)nc(Nc3ccncc3F)c21 [Example 41] | 0.6 |
| CC(C)n1cnc2cc(-c3ccc4c(c3)N([C@H]3C[C@@H](N5CC(C)(C)C[C@@H]5CO)C3)C(=O)C43CCN(C4COC4)CC3)nc(Nc3ccncc3F)c21 [Example 39] | 0.6 |
| CC(C)n1cnc2cc(-c3ccc4c(c3)N([C@H]3C[C@@H](N5CCC(C)(C)C5)C3)C(=O)C43CCN(C(=O)[C@H]4OCC[C@H]4C)CC3)nc(Nc3ccncc3F)c21 [Example 19B, 1-((1s,3R)-3-(3,3-dimethylpyrrolidin-1-yl)cyclobutyl)-6-(4-((3-fluoropyridin-4-yl)amino)-3-isopropyl-3H-imidazo[4,5-c]pyridin-6-yl)-1′-((2S,3R)-3-methyltetrahydrofuran-2-carbonyl)spiro[indoline-3,4′-piperidin]-2-one] | 0.1 |
